Results on 22 compounds are retold here after publication PMC6881066, “Non-sedating benzodiazepines cause paralysis and tissue damage in the parasitic blood fluke Schistosoma mansoni” (PLoS Neglected Tropical Diseases, 2019).

“Also recorded” adds a separate entry of the source. Where two headings read alike, the source gives them in different places.

For data set [1], the system named is adult male S. mansoni. Nature of the data set: Adult schistosome mobility assay (inhibition of movement). Format: cell-based, Schistosoma mansoni. As to conditions: for IC50: Schistosoma mansoni, adult male worms cultured in compound overnight, movement relative to DMSO control; for Potency at evoking coiled, contractile paralysis / activity against parasites (in words): in vitro, concentration-response, Fig 2B & 2C.

Data set [2] addresses mammalian GABAARs (central benzodiazepine binding site). Nature of the data set: [3H]flunitrazepam displacement binding assay, rat cerebral cortex membranes. As to conditions: rat brain membrane preparations, 0.4 nM radioligand, 60 min at 4°C. The procedure: Binding assays for benzodiazepines against mammalian GABAARs were performed measuring displacement of [3H] flunitrazepam (0.4 nM) from crude brain membrane preparations. Rat cerebral cortex membrane homogenate (80 μg protein) was incubated with 0.4 nM [3H]-flunitrazepam in 50 mM Tris-HCl (pH 7.7), plus test compounds (screened at concentrations ranging from 0.1 nM to 10 μM), and non-specific binding was assessed by incubation with diazepam (3 μM). Following incubation for 60 min at 4°C, samples were vacuum filtered through glass fiber filters (GF/B, Packard) presoaked with 0.3% PEI and rinsed with ice-cold 50 mM Tris-HCl (Unifilter, Packard). Filters were dried and counted for radioactivity in a scintillation counter (Topcount, Packard). Ki values of test compounds were calculated by the Cheng-Prusoff equation.

Data set [3] relates to adult male S. mansoni. Nature of the data set: In vitro screen / re-screen for coiled, contractile (curl) phenotype. The class given is cell-based, Schistosoma mansoni. As to conditions: for Worms showing curl phenotype: overnight.
For data set [4] the following is noted: cited from earlier work.
The test system of a further data set is S. mansoni tegument. Nature of the data set: Transmission electron microscopy of drug-treated worms (tegument damage). The class given is cell-based, Schistosoma mansoni. As to the method: Adult worms were harvested and recovered as above. Fixation was carried out overnight at 4°C in 2.5% glutaraldehyde/2% paraformaldehyde in 0.1 M sodium cacodylate (pH 7.3). Worms were washed 3 × 10 minutes in 0.1 M sodium cacodylate and post-fixed for 2 hours on ice in reduced 1% osmium tetraoxide. Worms were then washed 2 × 10 minutes in distilled water and stained overnight at 4°C in alcoholic Uranyl Acetate. Worms were rinsed in distilled water, dehydrated in 50%, 75% and 95% MeOH, followed by successive 10 minute rinses in 100% MeOH and acetonitrile. Worms were incubated in a 1:1 mix of acetonitrile and epoxy resin for 1 hour prior to 2 × 1 hour incubations in epoxy resin. Worms were then cut transversely and embedded overnight in epoxy resin (60°C). Ultra-thin sections (70 nm) were cut onto bare 200-mesh copper grids and stained in aqueous lead citrate for 1 minute. Sections were imaged on a Hitachi H-600 electron microscope fitted with a Hamamatsu C4742-95 digital camera) operating at an accelerating voltage of 75 kV.
Given the parasite-selectivity of imidazobenzodiazepines (Fig 3, blue) relative to MCLZ-like compounds (Fig 3, red), we investigated the effects of XliHeII-048, Xhe-II-048 and SH-I-055 on schistosome tissues in more detail. Specifically, we were interested in drug-evoked damage to the parasite tegument, which is a feature of many anti-schistosomal compounds [38]. Worms treated with DMSO vehicle control, MCLZ (5 μM) or various imidazobenzodiazepines (10 μM, based on effective concentrations determined in Fig 2) overnight were fixed and processed for imaging by transmission electron microcopy (TEM).
(§1) Fig 4 Xhe-II-048 damages the schistosome tegument. (A) Transmission electron microscopy images of transverse sections of S. mansoni exposed to either DMSO control, MCLZ (5 μM) or various imidazobenzodiazepines (10 μM, 14 hours). Dorsal tegument is oriented to the top. Scale = 2 μm. Arrowed = vacuoles beneath the tegument apical membrane. (B) Movement of worms treated with DMSO, MCLZ, or TMS-acetylene imidazobenzodiazepine compounds (10 μM, 14 hours), and recovery at various timepoints (3 hours, 1 day) following drug washout.

A further data set has as its system S. mansoni. Nature of the data set: Recovery of worm movement following drug washout. The class given is cell-based, Schistosoma mansoni. The note with it: 14 hours treatment, recovery 3 hours, 1 day after washout. As to the method:
Female Swiss Webster mice infected with S. mansoni cercariae (NMRI strain) were sacrificed 49 days post infection by CO2 euthanasia. Adult schistosomes were recovered by dissection of the mesenteric vasculature. Harvested schistosomes were washed in DMEM (ThermoFisher cat. # 11995123) supplemented with HEPES (25mM), 5% v/v heat inactivated FCS (Sigma Aldrich cat. # 12133C) and Penicillin-Streptomycin (100 units/mL). Worms were cultured in 6 well dishes (4–5 male worms in 3mL media per well) in the presence of various test compounds or DMSO vehicle control overnight (37°C / 5% CO2). Worms were imaged the next day to record movement phenotypes using a Zeiss Discovery v20 stereomicroscope and a QiCAM 12-bit cooled color CCD camera controlled by Metamorph imaging software (version 7.8.1.0). 1 minute recordings were acquired at 4 frames per second and saved as a .TIFF stack, which was imported into ImageJ for analysis. An outline of the workflow used to quantify movement from these video recordings is shown in S1 Fig. Maximum intensity projections were generated for the entire stack of images (241 frames for a 1-minute recording) and integrated pixel values were measured for the resulting composite image, allowing normalization of movement relative to DMSO control treated worms. Inhibition of movement IC50 values were calculated using GraphPad Prism v8.1.1 and are expressed ± 95% confidence intervals. Data represents mean ± standard error for ≥3 independent experiments. Significance (*) was determined by unpaired t-test at a threshold of 0.05.
as §1

The next data set relates to schistosomiasis. More on the design: method as in PMID 21695161, PMID 28619227. As to conditions: PZQ treatment; cited from earlier work.
The test system of the next data set is schistosomes. Also noted: method as in PMID 380021. The note with it: human clinical trials; cited from earlier work.
A further data set concerns SmGluCl. Also noted: method as in PMID 24009509. As to conditions: cited from earlier work.
For the next data set, the system named is S. japonicum. As to conditions: no reference given; cited from earlier work.
The conditions of data set [5]: human clinical trials; cited from earlier work.
Setting [6] is: inactive compounds tested at concentrations as high as 50 μM.

As a reminder, the IC50 is the midpoint of a concentration-inhibition curve. One may read the Ki as a measure of affinity in units of concentration, obtained from inhibition or displacement. A low value points to tighter binding.

`C[C@@H]1N=C(c2ccccc2Cl)c2cc([N+](=O)[O-])ccc2N(C)C1=O` [MYM-II-53] displayed an IC50 in the data set on adult male S. mansoni [1] (setting [6]) of over 50000 nM. Further, the inhibition constant (Ki) in data set [2] was determined as 4.1 nM.

In the data set on adult male S. mansoni [1] (setting [6]), `O=C1CN=C(c2ccccc2)c2cc([N+](=O)[O-])ccc2N1` [nitrazepam, reference compound] yielded an IC50 of over 50000 nM. In addition, the “Potency at evoking coiled, contractile paralysis / activity against parasites (in words)” value with adult male S. mansoni [1] was “inactive against parasites”.

In the case of `C#Cc1ccc2c(c1)C(c1ccccc1F)=N[C@@H](C)c1c(C(=O)OCC)ncn1-2` [SH-053-2’F-S-CH3], the “Potency at evoking coiled, contractile paralysis / activity against parasites (in words)” value in the data set with adult male S. mansoni [1] was “dramatically decreased affinity”.

For the compound `CCOC(=O)c1ncn2c1[C@H](C)N=C(c1ccccc1F)c1cc(Br)ccc1-2` [SH-I-48B], the “Potency at evoking coiled, contractile paralysis / activity against parasites (in words)” value in the data set on adult male S. mansoni [1] is given as “dramatically decreased affinity”. Further, the “Activity (curl phenotype)” value in the data set with adult male S. mansoni [3] (up to 100 micromolar) was “Inactive up to 100 micromolar”.

`Cc1ncoc1-c1ncn2c1CN=C(c1ccccc1)c1cc(Br)ccc1-2` [KRM-III-66]: the “Worms showing curl phenotype” value with adult male S. mansoni [3] (10 micromolar) is on record as 6/8 curl at 10 micromolar.

`Brc1ccc2c(c1)C(c1ccccc1)=NCc1c(-c3cnco3)ncn1-2` [KRM-II-73]: the “Worms showing curl phenotype” value in the data set on adult male S. mansoni [3] (10 micromolar) is on record as 2/8 curl at 10 micromolar.

In the case of `C[C@H]1N=C(c2ccccc2F)c2cc(C#C[Si](C)(C)C)ccc2NC1=O` [GL-I-61], in the data set with adult male S. mansoni [3] (10 micromolar), the “Worms showing curl phenotype” value is reported as 3/8 curling at 10 micromolar.

Take `O=C1CN=C(c2ccccc2Cl)c2cc([N+](=O)[O-])ccc2N1` [CLZ, clonazepam, reference compound]: the “Decrease in potency relative to MCLZ (loss of C3 methyl group)” value in the data set with adult male S. mansoni [1] (Fig 3) is on record as over 3 log. For the same compound, it took 1900 nM to reach half-maximal inhibition with adult male S. mansoni [1] (setting [6]) (IC50). The compound further gave a Ki in [2] of 0.82 nM.

As to `C[C@H]1N=C(c2ccccc2F)c2cc(Br)ccc2-n2cnc(-c3cnco3)c21` [GL-III-36], the “Worms showing curl phenotype” value with adult male S. mansoni [3] (10 micromolar) is “inactive (0/8 curling) at 10 micromolar”.

For `CCOC(=O)c1ncn2c1CN(C)C(=O)c1cc(F)ccc1-2` [flumazenil], the Elimination half-life in data set [4] (flumazenil, administered by IV) is under 1 h. The Bioavailability entry in data set [4] (flumazenil) is “poor bioavailability”.

In the case of `C[C@@H]1N=C(c2ccccc2)c2cc([N+](=O)[O-])ccc2NC1=O` [MYM-I-88], 26000 nM corresponded to half-maximal inhibition with adult male S. mansoni [1] (setting [6]) (IC50). The inhibitory constant (Ki) in data set [2] was found to be 76.4 nM.

`CCOC(=O)c1ncn2c1[C@H](C)N=C(c1ccccc1F)c1cc(C#C[Si](C)(C)C)ccc1-2` [SH-I-055]: it took 1400 nM to reach half-maximal inhibition in the data set with adult male S. mansoni [1] (setting [6]) (IC50). In addition, the “Times less potent than XliHeII-048” value in the data set on adult male S. mansoni [1] (movement IC50 comparison) was ~ 3 times. This compound came in with a Ki in data set [2] of 1700 nM. Also, the “Tegument ultrastructure (TEM)” value in the data set with S. mansoni tegument (10 μM, overnight (14 hours)) was “normal tissue ultrastructure”. In the data set with S. mansoni (10 μM), the “Recovery of movement following drug washout” value (“Recovery” below) is recorded as “recovering by 1 day after drug washout”. Moreover, the “Worms showing curl phenotype” value in the data set on adult male S. mansoni [3] (5 micromolar) is reported as 4/8; in the data set on adult male S. mansoni [3] (10 micromolar), 8/8.

With `C#Cc1ccc2c(c1)C(c1ccccn1)=NCc1c(-c3ocnc3C)ncn1-2` [KRM-III-79], in the data set on adult male S. mansoni [3] (10 micromolar), the “Worms showing curl phenotype” value was 5/8 curl at 10 micromolar.

In the data set on adult male S. mansoni [1] (setting [6]), `C[C@@H]1N=C(c2ccccc2F)c2cc([N+](=O)[O-])ccc2NC1=O` [MYM-I-91A] registered an IC50 of 7200 nM. The Ki in [2] was found to be 12.1 nM.

Turning to `CCOC(=O)c1ncn2c1CN=C(c1ccccc1F)c1cc(C#C[Si](C)(C)C)ccc1-2` [XliHeII-048], in the data set on adult male S. mansoni [1], the IC50 is 540 nM. The same compound registered an inhibition constant (Ki) in data set [2] of 1600 nM. The “Tegument ultrastructure (TEM)” value in the data set on S. mansoni tegument (10 μM, overnight (14 hours)) is listed as “normal tissue ultrastructure”. Also, the “Recovery” value in the data set with S. mansoni (10 μM) is listed as “recovering by 1 day after drug washout”. Besides, the “Worms showing curl phenotype” value with adult male S. mansoni [3] (10 micromolar) is listed as 5/5.

Turning to `CCOC(=O)c1ncn2c1[C@H](C)N=C(c1ccccc1F)c1cc(C3CC3)ccc1-2` [GL-I-78], in the data set with adult male S. mansoni [1], the “Potency at evoking coiled, contractile paralysis / activity against parasites (in words)” value was “dramatically decreased affinity”. Further, the “Worms showing curl phenotype” value in the data set on adult male S. mansoni [3] (10 micromolar) is “Inactive (0/8 curl) at 10 micromolar”.

Turning to `O=C(C1CCCCC1)N1CC(=O)N2CCc3ccccc3C2C1` (centres unmarked) [PZQ, praziquantel], the Cure rates in the data set with schistosomiasis was 70–90%.

`CCOC(=O)c1ncn2c1CN=C(c1ccccc1)c1cc(C#C[Si](C)(C)C)ccc1-2` [Xhe-II-048] displayed an IC50 in the data set with adult male S. mansoni [1] of 850 nM. The inhibition constant (Ki) in data set [2] was 2500 nM. The “Tegument ultrastructure (TEM)” value with S. mansoni tegument (10 μM, overnight (14 hours)) is reported as “extensive vacuole distribution beneath the apical membrane”. Further, the “Recovery” value in the data set on S. mansoni (10 μM) is listed as “did not recover movement up to one day”.

Regarding `C[C@H]1N=C(c2ccccc2F)c2cc(C#C[Si](C)(C)C)ccc2-n2cnc(-c3cnco3)c21` [GL-III-72], in the data set on adult male S. mansoni [3] (10 micromolar), the “Worms showing curl phenotype” value is 5/8 curl at 10 micromolar.

Take `O=C1CN=C(c2ccc(Cl)cc2)c2cc(Cl)ccc2N1` [GL-I-74]: the “Worms showing curl phenotype” value in the data set with adult male S. mansoni [3] (10 micromolar) is 1/8 curl at 10 micromolar.

As for `C[C@@H]1N=C(c2ccccc2Cl)c2cc([N+](=O)[O-])ccc2NC1=O` [MCLZ, meclonazepam], 160 nM corresponded to half-maximal inhibition with adult male S. mansoni [1] (IC50). In [2], this compound displayed an inhibitory constant (Ki) of 2.4 nM. For the same compound, the “Tegument ultrastructure (TEM)” value in the data set on S. mansoni tegument (5 μM, overnight) is given as “pervasive vacuolization of the tegument”. Besides, the “Recovery” value in the data set on S. mansoni (MCLZ) is reported as “do not recover movement”. The Effective anti-parasitic dose with schistosomes was 0.2 to 0.3 mg/kg. Also, the “Activity against SmGluCl” value in the data set with SmGluCl was “inactive”. Also, in the data set with S. japonicum, the “Activity against S. japonicum” value is “inactive”. In addition, in [4] (MCLZ), the Bioavailability result was “orally bioavailable” and the Half-life result is “up to 80 hours”. The “Dose at which sedation was reported” value in [5] is listed as “above 0.3 mg/kg”.

Consider `CCOC(=O)c1ncn2c1[C@@H](C)N=C(c1ccccc1F)c1cc(C#C[Si](C)(C)C)ccc1-2` [SH-I-060], for which the “Potency at evoking coiled, contractile paralysis / activity against parasites (in words)” value in the data set on adult male S. mansoni [1] is “marked decrease in potency; also recorded: essentially inactive”.
